The numbers were not newly measured in US20230390244A1, “MODIFIED RELEASE COMPOSITIONS COMPRISING MELATONIN” (Inventia Healthcare Limited, priority 2020, published 2023), which cites them from elsewhere.

The term half-life denotes the time in which the quantity being followed falls by half.

Assay in series [1]: not given
This is another data set of the same source.

For `COc1ccc2[nH]cc(CCNC(C)=O)c2c1` [Melatonin, N-acetyl-5-methoxytryptamine], the “time within which plasma concentrations decline” value (immediate-release formulation, depending on dose) is listed as no more than 1.5 h. In addition, the half-life (in vivo) is 40 to 50 min. The “solubility in organic solvents” value in series [1] (acetone, ethyl acetate and methanol) is on record as “soluble”. Moreover, the solubility in water result in series [1] (water) is listed as “slightly soluble”.
